From patent publication US10231954B2, “Neurodegenerative therapies” (LYTIX BIOPHARMA AS, priority 2014, dated 2019)
Like-named read-outs stand apart in the source and are kept apart here.

Assays:
Format in all cases: biochemical
[1] = target: T1, BRSK2 (Homo sapiens, UniProt Q8IWQ3); assay: Kinase profiling BRSK2; settings: for remaining activity at 100 µM: read-out: residual kinase activity, BRSK2
T1 sequence (Q8IWQ3 1-736): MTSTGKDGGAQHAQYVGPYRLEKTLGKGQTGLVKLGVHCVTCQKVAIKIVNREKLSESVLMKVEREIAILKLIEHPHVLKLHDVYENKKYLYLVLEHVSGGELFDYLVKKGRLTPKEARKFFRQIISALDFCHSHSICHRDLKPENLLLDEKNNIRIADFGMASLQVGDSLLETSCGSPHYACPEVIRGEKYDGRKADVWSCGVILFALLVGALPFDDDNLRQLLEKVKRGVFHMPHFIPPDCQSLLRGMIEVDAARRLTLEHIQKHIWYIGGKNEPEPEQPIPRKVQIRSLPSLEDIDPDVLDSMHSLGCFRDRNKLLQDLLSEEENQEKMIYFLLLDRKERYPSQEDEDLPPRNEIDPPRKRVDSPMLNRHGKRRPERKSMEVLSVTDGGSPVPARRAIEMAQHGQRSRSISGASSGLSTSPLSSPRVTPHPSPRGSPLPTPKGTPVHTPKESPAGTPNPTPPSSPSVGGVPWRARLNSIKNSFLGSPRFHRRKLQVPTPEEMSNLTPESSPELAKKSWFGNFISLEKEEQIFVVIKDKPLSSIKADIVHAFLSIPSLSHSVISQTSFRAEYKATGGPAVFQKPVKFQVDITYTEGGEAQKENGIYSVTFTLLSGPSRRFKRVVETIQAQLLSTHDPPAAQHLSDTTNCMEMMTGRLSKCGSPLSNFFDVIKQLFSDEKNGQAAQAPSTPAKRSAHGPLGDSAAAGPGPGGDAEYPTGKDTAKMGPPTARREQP
Source text: (§1) Any value less that 25 is considered to be highly significant inhibition.

[2] = target: HIPK3 (Homo sapiens, UniProt Q9H422); assay: Kinase profiling HIPK3; settings: for remaining activity at 100 µM: read-out: residual kinase activity, HIPK3
Chain of HIPK3 (Q9H422 whole entry, species assumed): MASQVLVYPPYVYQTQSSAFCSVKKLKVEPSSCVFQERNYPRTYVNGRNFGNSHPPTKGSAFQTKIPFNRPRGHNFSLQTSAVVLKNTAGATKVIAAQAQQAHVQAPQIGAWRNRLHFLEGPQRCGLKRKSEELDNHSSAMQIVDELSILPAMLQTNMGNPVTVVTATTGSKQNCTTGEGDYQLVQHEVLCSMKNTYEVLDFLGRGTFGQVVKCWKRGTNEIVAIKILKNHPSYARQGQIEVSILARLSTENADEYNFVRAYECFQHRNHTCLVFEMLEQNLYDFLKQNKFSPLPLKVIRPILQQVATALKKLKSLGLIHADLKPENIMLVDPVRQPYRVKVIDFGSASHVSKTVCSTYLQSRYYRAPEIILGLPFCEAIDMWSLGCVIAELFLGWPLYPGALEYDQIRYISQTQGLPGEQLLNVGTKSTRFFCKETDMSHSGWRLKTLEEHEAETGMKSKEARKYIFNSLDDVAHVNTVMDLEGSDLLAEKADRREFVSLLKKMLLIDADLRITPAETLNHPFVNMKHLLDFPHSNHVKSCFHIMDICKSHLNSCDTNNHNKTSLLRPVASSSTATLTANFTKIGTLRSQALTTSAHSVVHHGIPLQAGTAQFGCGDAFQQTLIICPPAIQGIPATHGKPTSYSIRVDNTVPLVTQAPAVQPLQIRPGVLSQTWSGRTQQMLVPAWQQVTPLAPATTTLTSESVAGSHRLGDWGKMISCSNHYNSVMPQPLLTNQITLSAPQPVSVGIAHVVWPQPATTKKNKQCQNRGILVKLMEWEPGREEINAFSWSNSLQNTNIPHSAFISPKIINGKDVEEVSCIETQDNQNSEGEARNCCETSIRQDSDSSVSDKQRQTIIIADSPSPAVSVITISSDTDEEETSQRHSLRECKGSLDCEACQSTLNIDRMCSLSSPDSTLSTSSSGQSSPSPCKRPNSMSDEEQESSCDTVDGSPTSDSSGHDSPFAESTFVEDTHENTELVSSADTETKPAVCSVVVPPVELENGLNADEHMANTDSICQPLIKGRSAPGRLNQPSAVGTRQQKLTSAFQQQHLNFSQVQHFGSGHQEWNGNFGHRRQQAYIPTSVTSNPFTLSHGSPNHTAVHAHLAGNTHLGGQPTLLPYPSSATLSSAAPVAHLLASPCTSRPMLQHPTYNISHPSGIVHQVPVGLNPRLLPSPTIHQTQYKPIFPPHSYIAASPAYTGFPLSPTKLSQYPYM
Source text: as §1

[3] = target: MARK2 (Homo sapiens, UniProt Q7KZI7); assay: Kinase profiling MARK2; settings: for remaining activity at 100 µM: read-out: residual kinase activity, MARK2
Chain of MARK2 (Q7KZI7 whole entry, species assumed): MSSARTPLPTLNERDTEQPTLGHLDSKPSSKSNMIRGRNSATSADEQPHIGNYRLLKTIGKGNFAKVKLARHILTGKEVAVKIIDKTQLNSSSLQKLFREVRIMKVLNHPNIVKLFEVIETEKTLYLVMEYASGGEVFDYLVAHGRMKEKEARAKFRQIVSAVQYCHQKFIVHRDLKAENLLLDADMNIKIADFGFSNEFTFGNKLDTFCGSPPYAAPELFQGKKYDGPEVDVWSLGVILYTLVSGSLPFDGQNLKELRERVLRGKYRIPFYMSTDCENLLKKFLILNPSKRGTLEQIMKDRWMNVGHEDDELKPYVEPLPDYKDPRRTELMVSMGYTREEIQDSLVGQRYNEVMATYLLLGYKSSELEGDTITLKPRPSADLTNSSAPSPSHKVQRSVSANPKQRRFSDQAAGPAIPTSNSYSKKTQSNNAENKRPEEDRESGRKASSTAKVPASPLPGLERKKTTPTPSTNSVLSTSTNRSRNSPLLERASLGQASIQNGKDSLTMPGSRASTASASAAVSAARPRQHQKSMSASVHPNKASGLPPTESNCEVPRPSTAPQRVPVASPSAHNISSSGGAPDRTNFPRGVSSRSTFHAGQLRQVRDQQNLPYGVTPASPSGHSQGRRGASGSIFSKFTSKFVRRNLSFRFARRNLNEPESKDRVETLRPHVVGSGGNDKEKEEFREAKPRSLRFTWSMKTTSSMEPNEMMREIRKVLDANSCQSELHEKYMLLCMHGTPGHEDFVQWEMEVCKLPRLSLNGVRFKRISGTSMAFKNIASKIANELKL
Source text: as §1

[4] = target: T2, EPH-B3 (Homo sapiens, UniProt P54753); assay: Kinase profiling EPH-B3; settings: for remaining activity at 100 µM: read-out: residual kinase activity, EPH-B3
T2 sequence (P54753 34-998): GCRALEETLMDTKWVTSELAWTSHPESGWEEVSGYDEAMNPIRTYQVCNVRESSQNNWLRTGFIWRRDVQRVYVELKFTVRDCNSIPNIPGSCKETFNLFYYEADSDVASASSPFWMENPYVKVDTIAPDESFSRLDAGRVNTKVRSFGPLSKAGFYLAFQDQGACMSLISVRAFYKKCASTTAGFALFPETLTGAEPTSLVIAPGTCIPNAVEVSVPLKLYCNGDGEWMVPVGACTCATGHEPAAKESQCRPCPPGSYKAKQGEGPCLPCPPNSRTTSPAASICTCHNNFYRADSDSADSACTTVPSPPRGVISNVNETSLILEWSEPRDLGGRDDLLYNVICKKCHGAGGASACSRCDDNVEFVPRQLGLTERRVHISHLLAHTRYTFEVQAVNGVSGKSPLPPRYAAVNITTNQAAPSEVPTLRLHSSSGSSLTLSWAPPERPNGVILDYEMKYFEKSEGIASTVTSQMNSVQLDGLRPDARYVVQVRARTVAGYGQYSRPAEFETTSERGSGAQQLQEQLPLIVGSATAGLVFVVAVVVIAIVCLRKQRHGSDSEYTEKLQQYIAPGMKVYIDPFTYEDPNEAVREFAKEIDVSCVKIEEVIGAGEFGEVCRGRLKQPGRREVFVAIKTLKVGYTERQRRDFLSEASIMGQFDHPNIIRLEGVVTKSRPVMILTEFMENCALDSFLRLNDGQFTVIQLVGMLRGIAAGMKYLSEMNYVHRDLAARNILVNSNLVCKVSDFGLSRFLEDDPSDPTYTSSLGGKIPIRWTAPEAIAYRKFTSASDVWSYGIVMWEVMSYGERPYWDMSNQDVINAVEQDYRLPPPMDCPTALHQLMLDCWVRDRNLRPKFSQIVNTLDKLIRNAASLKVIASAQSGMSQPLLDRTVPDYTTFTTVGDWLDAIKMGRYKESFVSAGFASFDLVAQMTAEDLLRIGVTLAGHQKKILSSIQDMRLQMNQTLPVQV
Source text: as §1

[5] = target: PIM2 (Homo sapiens, UniProt Q9P1W9); assay: Kinase profiling PIM2; settings: for remaining activity at 100 µM: read-out: residual kinase activity, PIM2
Chain of PIM2 (Q9P1W9 whole entry, species assumed): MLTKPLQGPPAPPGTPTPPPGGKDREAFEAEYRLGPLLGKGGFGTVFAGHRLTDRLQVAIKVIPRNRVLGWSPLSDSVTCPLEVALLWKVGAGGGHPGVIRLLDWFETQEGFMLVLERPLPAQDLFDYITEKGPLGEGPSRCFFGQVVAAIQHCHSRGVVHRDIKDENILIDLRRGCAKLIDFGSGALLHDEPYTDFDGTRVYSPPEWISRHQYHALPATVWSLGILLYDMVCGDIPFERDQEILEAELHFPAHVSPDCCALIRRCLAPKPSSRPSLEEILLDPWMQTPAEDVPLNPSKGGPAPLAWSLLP
Source text: as §1

[6] = target: MNK2 (Homo sapiens, UniProt Q9HBH9); assay: Kinase profiling MNK2; settings: for remaining activity at 100 µM: read-out: residual kinase activity, MNK2
Chain of MNK2 (Q9HBH9 whole entry, species assumed): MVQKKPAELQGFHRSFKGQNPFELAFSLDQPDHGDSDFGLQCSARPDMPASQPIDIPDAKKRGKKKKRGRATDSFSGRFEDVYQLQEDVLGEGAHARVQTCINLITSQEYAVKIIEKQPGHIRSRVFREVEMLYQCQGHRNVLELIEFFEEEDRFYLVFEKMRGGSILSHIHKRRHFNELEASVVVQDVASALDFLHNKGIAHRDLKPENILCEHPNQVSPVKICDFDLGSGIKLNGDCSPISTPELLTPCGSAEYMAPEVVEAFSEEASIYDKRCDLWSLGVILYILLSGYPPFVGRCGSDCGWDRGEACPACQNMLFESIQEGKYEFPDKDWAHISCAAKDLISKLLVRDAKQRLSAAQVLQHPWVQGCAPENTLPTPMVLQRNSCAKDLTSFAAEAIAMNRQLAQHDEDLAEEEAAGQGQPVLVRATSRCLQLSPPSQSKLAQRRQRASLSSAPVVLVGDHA
Source text: as §1

[7] = target: PAK2 (Homo sapiens, UniProt Q13177); assay: Kinase profiling PAK2; settings: for remaining activity at 100 µM: read-out: residual kinase activity, PAK2
Source text: as §1

[8] = target: MNK1 (Homo sapiens, UniProt Q9BUB5); assay: Kinase profiling MNK1; settings: for remaining activity at 100 µM: read-out: residual kinase activity, MNK1
Source text: as §1

[9] = target: CSK (Homo sapiens, UniProt P41240); assay: Kinase profiling CSK; settings: for remaining activity at 100 µM: read-out: residual kinase activity, CSK
Chain of CSK (P41240 whole entry, species assumed): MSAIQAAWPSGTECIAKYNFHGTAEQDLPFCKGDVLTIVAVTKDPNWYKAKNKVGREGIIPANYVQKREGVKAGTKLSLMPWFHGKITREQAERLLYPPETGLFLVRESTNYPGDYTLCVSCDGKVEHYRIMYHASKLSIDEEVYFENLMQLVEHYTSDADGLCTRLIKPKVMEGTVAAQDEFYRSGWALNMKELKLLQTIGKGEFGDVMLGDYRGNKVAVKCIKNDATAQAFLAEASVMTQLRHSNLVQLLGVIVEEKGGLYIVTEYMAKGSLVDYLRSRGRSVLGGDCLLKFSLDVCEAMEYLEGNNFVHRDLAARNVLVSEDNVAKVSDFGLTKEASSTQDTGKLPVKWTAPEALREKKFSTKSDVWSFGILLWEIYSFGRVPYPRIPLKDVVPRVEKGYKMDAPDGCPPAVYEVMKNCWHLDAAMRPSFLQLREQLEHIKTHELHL
Source text: as §1

[10] = target: BRK (Homo sapiens, UniProt Q13882); assay: Kinase profiling BRK; settings: for remaining activity at 100 µM: read-out: residual kinase activity, BRK
Chain of BRK (Q13882 whole entry, species assumed): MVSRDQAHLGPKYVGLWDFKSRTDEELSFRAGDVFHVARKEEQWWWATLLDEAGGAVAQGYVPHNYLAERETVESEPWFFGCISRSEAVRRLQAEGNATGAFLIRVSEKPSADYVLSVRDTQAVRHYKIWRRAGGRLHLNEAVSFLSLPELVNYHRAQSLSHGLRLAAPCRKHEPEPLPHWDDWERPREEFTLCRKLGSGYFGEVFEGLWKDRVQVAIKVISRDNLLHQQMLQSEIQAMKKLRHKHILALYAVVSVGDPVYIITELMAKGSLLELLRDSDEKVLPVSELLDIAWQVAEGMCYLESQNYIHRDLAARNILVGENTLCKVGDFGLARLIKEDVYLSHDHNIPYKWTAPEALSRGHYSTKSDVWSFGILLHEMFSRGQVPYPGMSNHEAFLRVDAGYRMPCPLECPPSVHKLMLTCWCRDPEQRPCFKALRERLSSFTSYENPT
Source text: as §1

[11] = target: SIK2 (Homo sapiens, UniProt Q9H0K1); assay: Kinase profiling SIK2; settings: for remaining activity at 100 µM: read-out: residual kinase activity, SIK2
Source text: as §1

[12] = target: PAK5 (Homo sapiens, UniProt Q9P286); assay: Kinase profiling PAK5; settings: for remaining activity at 100 µM: read-out: residual kinase activity, PAK5
Chain of PAK5 (Q9P286 whole entry): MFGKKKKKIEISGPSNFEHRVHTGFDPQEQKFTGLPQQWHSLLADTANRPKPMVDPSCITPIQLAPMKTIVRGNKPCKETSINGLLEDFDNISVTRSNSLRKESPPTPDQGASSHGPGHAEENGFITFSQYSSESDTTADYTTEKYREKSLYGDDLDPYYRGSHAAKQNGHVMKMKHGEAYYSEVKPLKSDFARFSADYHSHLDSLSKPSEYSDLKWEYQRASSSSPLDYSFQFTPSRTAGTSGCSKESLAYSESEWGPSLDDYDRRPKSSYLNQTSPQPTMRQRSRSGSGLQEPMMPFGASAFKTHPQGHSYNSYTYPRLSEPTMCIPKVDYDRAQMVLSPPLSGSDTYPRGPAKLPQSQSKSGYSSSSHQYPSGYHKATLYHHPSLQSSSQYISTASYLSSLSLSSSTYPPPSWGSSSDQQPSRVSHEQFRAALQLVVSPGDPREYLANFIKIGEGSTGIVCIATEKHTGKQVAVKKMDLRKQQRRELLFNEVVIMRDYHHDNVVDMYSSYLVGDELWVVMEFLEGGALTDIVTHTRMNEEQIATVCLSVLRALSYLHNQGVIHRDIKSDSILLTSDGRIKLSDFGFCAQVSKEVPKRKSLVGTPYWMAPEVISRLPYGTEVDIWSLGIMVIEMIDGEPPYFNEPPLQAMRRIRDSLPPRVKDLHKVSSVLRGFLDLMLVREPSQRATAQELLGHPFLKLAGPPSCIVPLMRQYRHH
Source text: as §1

[13] = target: MLK1 (Homo sapiens, UniProt P80192); assay: Kinase profiling MLK1; settings: for remaining activity at 100 µM: read-out: residual kinase activity, MLK1
Source text: as §1

[14] = target: MAPKAP-K2 (Homo sapiens, UniProt P49137); assay: Kinase profiling MAPKAP-K2; settings: for remaining activity at 100 µM: read-out: residual kinase activity, MAPKAP-K2
Chain of MAPKAP-K2 (P49137 whole entry, species assumed): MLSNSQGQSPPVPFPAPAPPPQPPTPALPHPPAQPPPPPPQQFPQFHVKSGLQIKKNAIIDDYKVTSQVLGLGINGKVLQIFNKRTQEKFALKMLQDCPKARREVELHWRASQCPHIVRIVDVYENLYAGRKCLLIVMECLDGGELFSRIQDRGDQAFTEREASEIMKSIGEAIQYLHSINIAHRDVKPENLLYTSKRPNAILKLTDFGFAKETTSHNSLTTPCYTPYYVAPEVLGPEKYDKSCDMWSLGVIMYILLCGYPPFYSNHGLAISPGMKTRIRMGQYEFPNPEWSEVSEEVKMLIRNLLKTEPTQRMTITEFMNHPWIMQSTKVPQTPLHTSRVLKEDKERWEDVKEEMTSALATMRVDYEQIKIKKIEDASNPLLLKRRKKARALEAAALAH
Source text: as §1

[15] = 100 micromolar inhibitor concentration, 100 is no change
[16] = 100 micromolar inhibitor, 100 = no change

CC(=O)Nc1nc2cc(O)ccc2s1 [Compound 01-66, N-(5-hydroxybenzo[d]thiazol-2-yl)acetamide]
remaining activity at 100 µM [1]: 56% | remaining activity at 100 µM [2]: 37% | remaining activity at 100 µM [3]: 63% | remaining activity at 100 µM [4]: 83% | remaining activity at 100 µM [5]: 16% | remaining activity at 100 µM [6]: 33% | remaining activity at 100 µM [7]: 93% | remaining activity at 100 µM [8]: 17% | remaining activity at 100 µM [9]: 92% | remaining activity at 100 µM [10]: 77% | remaining activity at 100 µM [11]: 56% | remaining activity at 100 µM [12]: 72% | remaining activity at 100 µM [13]: 39% | remaining activity at 100 µM [14]: 77%

CC(=O)Nc1nc2ccc(O)cc2s1 [Compound 01-71]
remaining activity at 100 µM [1, 15]: 22% | remaining activity at 100 µM [2, 15]: 27% | remaining activity at 100 µM [3, 15]: 54% | remaining activity at 100 µM [4, 15]: 66% | remaining activity at 100 µM [5, 15]: 38% | remaining activity at 100 µM [6, 15]: 34% | remaining activity at 100 µM [7, 15]: 102% | remaining activity at 100 µM [8, 15]: 28% | remaining activity at 100 µM [9, 15]: 78% | remaining activity at 100 µM [10, 15]: 22% | remaining activity at 100 µM [11, 15]: 32% | remaining activity at 100 µM [12, 15]: 85% | remaining activity at 100 µM [13, 15]: 11% | remaining activity at 100 µM [14, 15]: 46%

CC(=O)Nc1nc2ccc(C(F)(F)F)cc2s1 [Compound 01-90]
remaining activity at 100 µM [1, 15]: 64% | remaining activity at 100 µM [2, 15]: 69% | remaining activity at 100 µM [3, 15]: 74% | remaining activity at 100 µM [4, 15]: 89% | remaining activity at 100 µM [5, 15]: 94% | remaining activity at 100 µM [6, 15]: 71% | remaining activity at 100 µM [7, 15]: 103% | remaining activity at 100 µM [8, 15]: 65% | remaining activity at 100 µM [9, 15]: 61% | remaining activity at 100 µM [10, 15]: 99% | remaining activity at 100 µM [11, 15]: 72% | remaining activity at 100 µM [12, 15]: 82% | remaining activity at 100 µM [13, 15]: 39% | remaining activity at 100 µM [14, 15]: 90%

CC(=O)Nc1nc2ccc(C#N)cc2s1 [Compound 01-94]
remaining activity at 100 µM [1, 15]: 67% | remaining activity at 100 µM [2, 15]: 38% | remaining activity at 100 µM [3, 15]: 53% | remaining activity at 100 µM [4, 15]: 72% | remaining activity at 100 µM [5, 15]: 73% | remaining activity at 100 µM [6, 15]: 50% | remaining activity at 100 µM [7, 15]: 101% | remaining activity at 100 µM [8, 15]: 47% | remaining activity at 100 µM [9, 15]: 83% | remaining activity at 100 µM [10, 15]: 100% | remaining activity at 100 µM [11, 15]: 70% | remaining activity at 100 µM [12, 15]: 70% | remaining activity at 100 µM [13, 15]: 34% | remaining activity at 100 µM [14, 15]: 65%

CC(=O)Nc1cccc(NC(=O)c2nc3ccc(O)cc3s2)c1 [Compound 03-07, N-(3-acetamidophenyl)-6-hydroxybenzo[d]thiazole-2-carboxamide]
remaining activity at 100 µM [1, 16]: 66% | remaining activity at 100 µM [2, 16]: 81% | remaining activity at 100 µM [3, 16]: 73% | remaining activity at 100 µM [4, 16]: 64% | remaining activity at 100 µM [5, 16]: 61% | remaining activity at 100 µM [6, 16]: 50% | remaining activity at 100 µM [7, 16]: 90% | remaining activity at 100 µM [8, 16]: 40% | remaining activity at 100 µM [9, 16]: 105% | remaining activity at 100 µM [10, 16]: 80% | remaining activity at 100 µM [11, 16]: 28% | remaining activity at 100 µM [12, 16]: 82% | remaining activity at 100 µM [13, 16]: 26% | remaining activity at 100 µM [14, 16]: 51%

O=C(Nc1nc2cc(O)ccc2s1)c1ccncc1 [Compound 03-11]
residual kinase activity, BRSK2 [1, 15]: 81 | residual kinase activity, HIPK3 [2, 15]: 106 | residual kinase activity, MARK2 [3, 15]: 79 | residual kinase activity, EPH-B3 [4, 15]: 76 | residual kinase activity, PIM2 [5, 15]: 89 | residual kinase activity, MNK2 [6, 15]: 75 | residual kinase activity, PAK2 [7, 15]: 88 | residual kinase activity, MNK1 [8, 15]: 45 | residual kinase activity, CSK [9, 15]: 94 | residual kinase activity, BRK [10, 15]: 93 | residual kinase activity, SIK2 [11, 15]: 79 | residual kinase activity, PAK5 [12, 15]: 92 | residual kinase activity, MLK1 [13, 15]: 71 | residual kinase activity, MAPKAP-K2 [14, 15]: 82

O=C(Nc1nc2ccc(O)cc2s1)c1ccccn1 [Compound 03-12]
residual kinase activity, BRSK2 [1, 15]: 79 | residual kinase activity, HIPK3 [2, 15]: 84 | residual kinase activity, MARK2 [3, 15]: 90 | residual kinase activity, EPH-B3 [4, 15]: 63 | residual kinase activity, PIM2 [5, 15]: 75 | residual kinase activity, MNK2 [6, 15]: 66 | residual kinase activity, PAK2 [7, 15]: 104 | residual kinase activity, MNK1 [8, 15]: 67 | residual kinase activity, CSK [9, 15]: 101 | residual kinase activity, BRK [10, 15]: 61 | residual kinase activity, SIK2 [11, 15]: 77 | residual kinase activity, PAK5 [12, 15]: 94 | residual kinase activity, MLK1 [13, 15]: 31 | residual kinase activity, MAPKAP-K2 [14, 15]: 43
